Measured values as given in ChEMBL document CHEMBL4400520, “Benzofuran-isatin-imine hybrids tethered via different length alkyl linkers: Design, synthesis and in vitro evaluation of anti-tubercular and anti-bacterial activities as well as cytotoxicity” (Eur J Med Chem, 2019).
Converted amounts (≈) assume the structure as drawn.

Experiments:
Assay type in all cases: functional
[1] = test system: Mycobacterium tuberculosis; assay: Antitubercular activity against multidrug resistant Mycobacterium tuberculosis isolate 2
[2] = test system: Mycobacterium tuberculosis; assay: Antitubercular activity against multidrug resistant Mycobacterium tuberculosis isolate 1
[3] = test system: Mycobacterium tuberculosis; assay: Potency index, ratio of rifampin MIC to compound MIC for multidrug resistant Mycobacterium tuberculosis isolate 2
[4] = test system: Mycobacterium tuberculosis; assay: Potency index, ratio of rifampin MIC to compound MIC for multidrug resistant Mycobacterium tuberculosis isolate 1
[5] = test system: Mycobacterium tuberculosis; assay: Potency index, ratio of isoniazid MIC to compound MIC for multidrug resistant Mycobacterium tuberculosis isolate 1
[6] = test system: Mycobacterium tuberculosis; assay: Potency index, ratio of ciprofloxacin MIC to compound MIC for multidrug resistant Mycobacterium tuberculosis isolate 2
[7] = test system: Mycobacterium tuberculosis; assay: Potency index, ratio of ciprofloxacin MIC to compound MIC for multidrug resistant Mycobacterium tuberculosis isolate 1
[8] = test system: Mycobacterium tuberculosis; assay: Potency index, ratio of isoniazid MIC to compound MIC for multidrug resistant Mycobacterium tuberculosis isolate 2

Row | SMILES | MIC [1] [µg/mL] | MIC [2] [µg/mL] | other results
1 | CCO/N=C1\C(=O)N(CCCCCCOc2ccc3oc(-c4ccc(OC)cc4)c(C(=O)OCC)c3c2)c2ccccc21 | 3.86 (≈ 6.6 µM) | 2.69 (≈ 4.6 µM) | –
2 | CCOC(=O)c1c(-c2ccc(OC)cc2)oc2ccc(OCCCCCCN3C(=O)/C(=N\NC(N)=S)c4ccccc43)cc12 | 0.48 (≈ 0.781 µM) | 0.47 (≈ 0.765 µM) | –
3 | CCOC(=O)c1c(-c2ccc(OC)cc2)oc2ccc(OCCCCCCN3C(=O)/C(=N\NC(N)=S)c4cc(F)ccc43)cc12 | 0.9 (≈ 1.42 µM) | 0.95 (≈ 1.5 µM) | –
4 | CNC(=O)c1c(-c2ccc(O)cc2)oc2ccc(O)c(CN3CCCCC3)c12 | < 0.016 | < 0.016 | –
5 | CCOC(=O)c1c(-c2ccccc2)oc2ccc(OCCCN3C(=O)/C(=N\OC)c4ccccc43)cc12 | 0.91 (≈ 1.83 µM) | 0.94 (≈ 1.89 µM) | –
6 | CCO/N=C1\C(=O)N(CCCOc2ccc3oc(-c4ccc(OC)cc4)c(C(=O)OCC)c3c2)c2ccccc21 | 5.88 (≈ 10.8 µM) | 4.25 (≈ 7.83 µM) | –
7 | CCOC(=O)c1c(-c2ccc(OC)cc2)oc2ccc(OCCCN3C(=O)/C(=N\OC)c4cc(OC)ccc43)cc12 | 0.29 (≈ 0.519 µM) | 0.49 (≈ 0.877 µM) | –
8 | CO[C@H]1/C=C/O[C@@]2(C)Oc3c(C)c(O)c4c(O)c(c(/C=N/N5CCN(C)CC5)c(O)c4c3C2=O)NC(=O)/C(C)=C\C=C\[C@H](C)[C@H](O)[C@@H](C)[C@@H](O)[C@@H](C)[C@H](OC(C)=O)[C@@H]1C [RIFAMPIN] | > 40 | > 40 | –
9 | NNC(=O)c1ccncc1 [ISONIAZID] | > 40 | > 40 | –
10 | CCOC(=O)c1c(-c2ccc(OC)cc2)oc2ccc(OCCCCCCN3C(=O)C(=O)c4cc(F)ccc43)cc12 | 12.9 (≈ 23.1 µM) | 14.2 (≈ 25.3 µM) | –
11 | O=C(O)c1cn(C2CC2)c2cc(N3CCNCC3)c(F)cc2c1=O [CIPROFLOXACIN] | 0.27 (≈ 0.815 µM) | 0.39 (≈ 1.18 µM) | –
12 | CCO/N=C1\C(=O)N(CCCOc2ccc3oc(-c4ccc(OC)cc4)c(C(=O)OCC)c3c2)c2ccc(OC)cc21 | 2.12 (≈ 3.7 µM) | 2.24 (≈ 3.91 µM) | –
13 | CCOC(=O)c1c(-c2ccc(OC)cc2)oc2ccc(OCCCCCCN3C(=O)/C(=N\OC)c4ccccc43)cc12 | 1.87 (≈ 3.28 µM) | 1.73 (≈ 3.03 µM) | –
14 | CCO/N=C1\C(=O)N(CCCCOc2ccc3oc(-c4ccc(OC)cc4)c(C(=O)OCC)c3c2)c2ccccc21 | 3.42 (≈ 6.14 µM) | 3.23 (≈ 5.8 µM) | –
15 | CCOC(=O)c1c(-c2ccc(F)cc2)oc2ccc(OCCCCCCN3C(=O)C(=O)c4cc(F)ccc43)cc12 | 2.98 (≈ 5.44 µM) | 5.89 (≈ 10.8 µM) | –
16 | CCOC(=O)c1c(-c2ccc(OC)cc2)oc2ccc(OCCCCCCN3C(=O)/C(=N\OC)c4cc(F)ccc43)cc12 | 3.56 (≈ 6.05 µM) | 2.85 (≈ 4.84 µM) | –
17 | CCOC(=O)c1c(-c2ccccc2)oc2ccc(OCCCN3C(=O)/C(=N\OC)c4cc(OC)ccc43)cc12 | 0.27 (≈ 0.511 µM) | 0.21 (≈ 0.397 µM) | –
18 | CCOC(=O)c1c(-c2ccc(OC)cc2)oc2ccc(OCCCN3C(=O)/C(=N\OC)c4ccccc43)cc12 | 0.21 (≈ 0.397 µM) | 0.16 (≈ 0.303 µM) | –
19 | CCOC(=O)c1c(-c2ccc(OC)cc2)oc2ccc(OCCCCN3C(=O)/C(=N\OC)c4ccccc43)cc12 | 0.16 (≈ 0.295 µM) | 0.062 (≈ 0.114 µM) | Ratio [3]: >=48; Ratio [4]: >=48; Ratio [5]: >=48; Ratio [6]: >=48; Ratio [7]: >=48; Ratio [8]: >=48
20 | CCOC(=O)c1c(-c2ccc(OC)cc2)oc2ccc(OCCCCCN3C(=O)/C(=N\OC)c4cc(F)ccc43)cc12 | 4.24 (≈ 7.38 µM) | 3.46 (≈ 6.02 µM) | –
